We go through five molecules from patent US9452225B2, “GLP-1 prodrugs” (Novo Nordisk A/S, priority 2012, dated 2016).

Structures are written as SMILES. Numbered stars: 1 amine (or outer) side, 2 acyl side, 3 side chain; on linkers, the order of the positions; unused ones are H or OH. Square brackets hold non-standard residues; d marks the D form. Side chains are listed from the residue outwards. Peptide text beside a SMILES is read from it. * marks the point of attachment. Decanoyl(10-(4-HOOC-PhO)) = O=C(O)c1ccc(OCCCCCCCCCC(=O)*)cc1; Lac(3-(imidazol-4-yl)) = O=C(O)[C@@H](O)Cc1c[nH]cn1; γGlu = O=C(O)[C@H](CCC(=O)[*:2])N[*:1]; NMeI = CC[C@H](C)[C@H](NC)C(=O)O; NMeV = CN[C@H](C(=O)O)C(C)C; AEEA = NCCOCCOCC(=O)O; Sar = CNCC(=O)O

Data set [1] in a line: Prodrug half-life in vitro, buffer method. It is filed as physicochemical. Particulars: 25 mM phosphate buffer pH 7.4, 37° C., 1.0 mg/mL; UPLC_A, or UPLC_B for compounds marked *; read-out: T½ in buffer (converted). The protocol:
(§1) The purpose of this example is to test the in vitro half-lives (T½) of the GLP-1 prodrugs of the invention, in comparison to conceptually different prodrugs. In what follows two in vitro methods are described, viz. a method conducted in buffer, and a method conducted in plasma.
Buffer: 25 mM Phosphate (Ionic strength: 154 mM, pH 7.4 at 37° C.)
NaH2PO4.2H2O (1.95 g, 12.5 mmol) and NaCl (2.61 g, 44.7 mmol) were dissolved in millipore water (approximately 450 mL) and adjusted to pH=7.44 at approximately 20° C. with concentrated NaOH and 1 M NaOH. Water was added to 500.00 mL.
The compound to be tested was dissolved in buffer to a concentration of 1.0 mg/mL and incubated at 37° C. Samples were taken at adequate intervals and the % parent drug compared to prodrug formed as function of time was evaluated by the UPLC method as referred to in Table 1 by comparing the areas under the curves for the two corresponding peaks. These UPLC methods are described in the general experimental section above (UPLC_A, and UPLC_B).
(§2) The half life of the prodrug (T½) was calculated from the slope of a linear fit to the curve of ln(% prodrug (Y)) as a function of time (t), as follows: Y=÷αt+k Math. 1 T½=ln(2)/α Math. 2 Plasma Method Buffer: 200 mM Phosphate, pH 7.4 at 37° C.
The resulting half-lives are set out in Table 1 below. For comparison, the T½ in buffer of native GLP-1(7-37) (His7 variant of SEQ ID NO: 1) was 13 minutes (0.2 hours).

The nature of data set [2]: Prodrug half-life in vitro, plasma method (minipig heparin plasma). Particulars: minipig heparin plasma 800 μL + 200 μL 200 mM phosphate pH 7.4, 37° C.; UPLC_A, or UPLC_B for compounds marked *; read-out: T½ in plasma (converted). It is filed as in vitro ADME. The procedure:
as §1, §2
NaH2PO4.2H2O (15.61 g, 100 mmol) was dissolved in milliQ water (approximately 450 mL) and adjusted to pH=7.44 at approximately 20° C. with concentrated NaOH (aq) and 1 M NaOH (aq). Water was added to 500.00 mL.
Serum: Minipig Serum, Heparin-Plasma
Fresh blood was tapped from minipig into 9 mL LH lithium heparin Vacuette tubes from Greiner bio-one (catalogue number 455084). After cooling on ice it was centrifuged (10 min, 4° C., 3000 rpm/1942G) and the supernatant isolated and kept at −18° C. before use.
100 nmol of the compound to be tested was dissolved in 200 μL buffer, added to 800 μL plasma (centrifuged), and incubated at 37° C. Samples (50 μL) were drawn at appropriate intervals into 150 μL absolute EtOH. After a short stirring the sample was centrifuged and the supernatant transferred to the UPLC vial (10 μL injection).
The % parent drug compared to prodrug formed as a function of time was evaluated by UPLC, and the half-life calculated, both in the same way as described above under the Buffer method.

Turning to `CC[C@H](C)[C@H](NC(=O)[C@H](Cc1ccccc1)NC(=O)[C@H](CCC(=O)O)NC(=O)[C@H](CCCNC(=N)N)NC(=O)[C@@H](NC(=O)[C@H](C)NC(=O)[C@H](CCC(N)=O)NC(=O)[C@H](CCC(=O)O)NC(=O)[C@H](CCC(=O)O)NC(=O)[C@H](CC(C)C)NC(=O)[C@H](Cc1ccc(O)cc1)NC(=O)[C@H](CCCCNC(=O)COCCOCCNC(=O)COCCOCCNC(=O)CC[C@H](NC(=O)CCCCCCCCCOc1ccc(C(=O)O)cc1)C(=O)O)NC(=O)[C@H](CO)NC(=O)[C@@H](NC(=O)[C@H](CC(=O)O)NC(=O)[C@H](CO)NC(=O)[C@@H](NC(=O)[C@H](Cc1ccccc1)NC(=O)[C@@H](NC(=O)CNC(=O)[C@H](CCC(=O)O)NC(=O)[C@H](C)NC(=O)[C@H](Cc1c[nH]cn1)OC(=O)[C@@H](NC(=O)CNC)C(C)C)[C@@H](C)O)[C@@H](C)O)C(C)C)C(C)C)C(=O)N[C@@H](C)C(=O)N[C@@H](CCCCNC(=O)COCCOCCNC(=O)COCCOCCNC(=O)CC[C@H](NC(=O)CCCCCCCCCOc1ccc(C(=O)O)cc1)C(=O)O)C(=O)N[C@@H](CC(C)C)C(=O)N[C@H](C(=O)N[C@@H](CCCNC(=N)N)C(=O)NCC(=O)N[C@@H](CCCNC(=N)N)C(=O)NCC(=O)O)C(C)C` [Example 1] (H-[Sar]V[Lac(3-(imidazol-4-yl))]AEGTFTSDVSK([AEEA-AEEA-γGlu-Decanoyl(10-(4-HOOC-PhO))])YLEEQAVREFIAK([AEEA-AEEA-γGlu-Decanoyl(10-(4-HOOC-PhO))])LVRGRG-OH), the half-life at 1 mg/mL in data set [1] was 9.6 h. The half-life in data set [2] was 3.6 h.

Consider `CC[C@H](C)[C@H](NC(=O)[C@H](Cc1ccccc1)NC(=O)[C@H](CCC(=O)O)NC(=O)[C@H](CCCNC(=N)N)NC(=O)[C@@H](NC(=O)[C@H](C)NC(=O)[C@H](CCC(N)=O)NC(=O)[C@H](CCC(=O)O)NC(=O)[C@H](CCC(=O)O)NC(=O)[C@H](CC(C)C)NC(=O)[C@H](Cc1ccc(O)cc1)NC(=O)[C@H](CCCCNC(=O)COCCOCCNC(=O)COCCOCCNC(=O)CC[C@H](NC(=O)CCCCCCCCCOc1ccc(C(=O)O)cc1)C(=O)O)NC(=O)[C@H](CO)NC(=O)[C@@H](NC(=O)[C@H](CC(=O)O)NC(=O)[C@H](CO)NC(=O)[C@@H](NC(=O)[C@H](Cc1ccccc1)NC(=O)[C@@H](NC(=O)CNC(=O)[C@H](CCC(=O)O)NC(=O)[C@H](C)NC(=O)[C@H](Cc1c[nH]cn1)OC(=O)[C@@H](NC(=O)[C@@H](NC)C(C)C)C(C)C)[C@@H](C)O)[C@@H](C)O)C(C)C)C(C)C)C(=O)N[C@@H](C)C(=O)N[C@@H](CCCCNC(=O)COCCOCCNC(=O)COCCOCCNC(=O)CC[C@H](NC(=O)CCCCCCCCCOc1ccc(C(=O)O)cc1)C(=O)O)C(=O)N[C@@H](CC(C)C)C(=O)N[C@H](C(=O)N[C@@H](CCCNC(=N)N)C(=O)NCC(=O)N[C@@H](CCCNC(=N)N)C(=O)NCC(=O)O)C(C)C` [Example 2] (H-[NMeV]V[Lac(3-(imidazol-4-yl))]AEGTFTSDVSK([AEEA-AEEA-γGlu-Decanoyl(10-(4-HOOC-PhO))])YLEEQAVREFIAK([AEEA-AEEA-γGlu-Decanoyl(10-(4-HOOC-PhO))])LVRGRG-OH), for which the half-life at 1 mg/mL in data set [1] was 42.5 h. Also, the half-life in data set [2] is 27.5 h.

For the molecule `CC[C@H](C)[C@H](NC(=O)[C@H](Cc1ccccc1)NC(=O)[C@H](CCC(=O)O)NC(=O)[C@H](CCCNC(=N)N)NC(=O)[C@@H](NC(=O)[C@H](C)NC(=O)[C@H](CCC(N)=O)NC(=O)[C@H](CCC(=O)O)NC(=O)[C@H](CCC(=O)O)NC(=O)[C@H](CC(C)C)NC(=O)[C@H](Cc1ccc(O)cc1)NC(=O)[C@H](CCCCNC(=O)COCCOCCNC(=O)COCCOCCNC(=O)CC[C@H](NC(=O)CCCCCCCCCOc1ccc(C(=O)O)cc1)C(=O)O)NC(=O)[C@H](CO)NC(=O)[C@@H](NC(=O)[C@H](CC(=O)O)NC(=O)[C@H](CO)NC(=O)[C@@H](NC(=O)[C@H](Cc1ccccc1)NC(=O)[C@@H](NC(=O)CNC(=O)[C@H](CCC(=O)O)NC(=O)[C@H](C)NC(=O)[C@H](Cc1c[nH]cn1)OC(=O)[C@@H](NC(=O)[C@@H](N)C(C)C)C(C)C)[C@@H](C)O)[C@@H](C)O)C(C)C)C(C)C)C(=O)N[C@@H](C)C(=O)N[C@@H](CCCCNC(=O)COCCOCCNC(=O)COCCOCCNC(=O)CC[C@H](NC(=O)CCCCCCCCCOc1ccc(C(=O)O)cc1)C(=O)O)C(=O)N[C@@H](CC(C)C)C(=O)N[C@H](C(=O)N[C@@H](CCCNC(=N)N)C(=O)NCC(=O)N[C@@H](CCCNC(=N)N)C(=O)NCC(=O)O)C(C)C` [Example 2a] (H-VV[Lac(3-(imidazol-4-yl))]AEGTFTSDVSK([AEEA-AEEA-γGlu-Decanoyl(10-(4-HOOC-PhO))])YLEEQAVREFIAK([AEEA-AEEA-γGlu-Decanoyl(10-(4-HOOC-PhO))])LVRGRG-OH), the half-life at 1 mg/mL in data set [1] is 10.5 h. Further, in data set [2], the half-life was 4.6 h.

As for `CC[C@H](C)[C@H](NC)C(=O)N[C@H](C(=O)O[C@@H](Cc1c[nH]cn1)C(=O)N[C@@H](C)C(=O)N[C@@H](CCC(=O)O)C(=O)NCC(=O)N[C@H](C(=O)N[C@@H](Cc1ccccc1)C(=O)N[C@H](C(=O)N[C@@H](CO)C(=O)N[C@@H](CC(=O)O)C(=O)N[C@H](C(=O)N[C@@H](CO)C(=O)N[C@@H](CCCCNC(=O)COCCOCCNC(=O)COCCOCCNC(=O)CC[C@H](NC(=O)CCCCCCCCCOc1ccc(C(=O)O)cc1)C(=O)O)C(=O)N[C@@H](Cc1ccc(O)cc1)C(=O)N[C@@H](CC(C)C)C(=O)N[C@@H](CCC(=O)O)C(=O)N[C@@H](CCC(=O)O)C(=O)N[C@@H](CCC(N)=O)C(=O)N[C@@H](C)C(=O)N[C@H](C(=O)N[C@@H](CCCNC(=N)N)C(=O)N[C@@H](CCC(=O)O)C(=O)N[C@@H](Cc1ccccc1)C(=O)N[C@H](C(=O)N[C@@H](C)C(=O)N[C@@H](CCCCNC(=O)COCCOCCNC(=O)COCCOCCNC(=O)CC[C@H](NC(=O)CCCCCCCCCOc1ccc(C(=O)O)cc1)C(=O)O)C(=O)N[C@@H](CC(C)C)C(=O)N[C@H](C(=O)N[C@@H](CCCNC(=N)N)C(=O)NCC(=O)N[C@@H](CCCNC(=N)N)C(=O)NCC(=O)O)C(C)C)[C@@H](C)CC)C(C)C)C(C)C)[C@@H](C)O)[C@@H](C)O)C(C)C` [Example 3] (H-[NMeI]V[Lac(3-(imidazol-4-yl))]AEGTFTSDVSK([AEEA-AEEA-γGlu-Decanoyl(10-(4-HOOC-PhO))])YLEEQAVREFIAK([AEEA-AEEA-γGlu-Decanoyl(10-(4-HOOC-PhO))])LVRGRG-OH), in data set [1], the half-life at 1 mg/mL was 38.5 h. The half-life in data set [2] is 25.6 h.

Turning to `CC[C@H](C)[C@H](N)C(=O)N[C@H](C(=O)O[C@@H](Cc1c[nH]cn1)C(=O)N[C@@H](C)C(=O)N[C@@H](CCC(=O)O)C(=O)NCC(=O)N[C@H](C(=O)N[C@@H](Cc1ccccc1)C(=O)N[C@H](C(=O)N[C@@H](CO)C(=O)N[C@@H](CC(=O)O)C(=O)N[C@H](C(=O)N[C@@H](CO)C(=O)N[C@@H](CCCCNC(=O)COCCOCCNC(=O)COCCOCCNC(=O)CC[C@H](NC(=O)CCCCCCCCCOc1ccc(C(=O)O)cc1)C(=O)O)C(=O)N[C@@H](Cc1ccc(O)cc1)C(=O)N[C@@H](CC(C)C)C(=O)N[C@@H](CCC(=O)O)C(=O)N[C@@H](CCC(=O)O)C(=O)N[C@@H](CCC(N)=O)C(=O)N[C@@H](C)C(=O)N[C@H](C(=O)N[C@@H](CCCNC(=N)N)C(=O)N[C@@H](CCC(=O)O)C(=O)N[C@@H](Cc1ccccc1)C(=O)N[C@H](C(=O)N[C@@H](C)C(=O)N[C@@H](CCCCNC(=O)COCCOCCNC(=O)COCCOCCNC(=O)CC[C@H](NC(=O)CCCCCCCCCOc1ccc(C(=O)O)cc1)C(=O)O)C(=O)N[C@@H](CC(C)C)C(=O)N[C@H](C(=O)N[C@@H](CCCNC(=N)N)C(=O)NCC(=O)N[C@@H](CCCNC(=N)N)C(=O)NCC(=O)O)C(C)C)[C@@H](C)CC)C(C)C)C(C)C)[C@@H](C)O)[C@@H](C)O)C(C)C` [Example 3a] (H-IV[Lac(3-(imidazol-4-yl))]AEGTFTSDVSK([AEEA-AEEA-γGlu-Decanoyl(10-(4-HOOC-PhO))])YLEEQAVREFIAK([AEEA-AEEA-γGlu-Decanoyl(10-(4-HOOC-PhO))])LVRGRG-OH), in data set [1], the half-life at 1 mg/mL was 7.5 h. Besides, the half-life in data set [2] is 5 h.
